Assay results reported in patent US8883428B2, “Methods to determine atherosclerosis regression, plaque stabilization and cardiovascular risk” (The Regents of the University of California, priority 2009, dated 2014).

Tests used:
[1] = OxPL/apoA in patients treated with JTT-705, then placebo; format: in vivo, human; details: nineteen patients; active treatment followed by placebo; FIG. 4
Procedure: Patients were then taken off the JTT-705 and placed on placebo. […] Add 50 μl/well. […] Leave at room temperature for 1-2 hours. Wash plate as above. […] Incubate at room temperature for 1 hour. Wash plate with cell washer set at 4 washes. […] Keep in the dark. Read in Chemiluminescence detector as relative light units (RLU). All assays are run in triplicate.

[2] = patients with coronary artery disease already on statins; measured before and after treatment; FIG. 3
Procedure: OxPL/apoA was then measured before and after the treatment.
Determine amount of OxPL on apoA1: Add an apo A-1 capture antibody such as Sheep anti-Human Apolipoprotein A-1 (The Binding Site, Birmingham, England) at 5-10 μg/ml to TBS buffer (or PBS) for overnight incubation at 4° C. Add 50 μl/well. The next day, wash plates with an automatic plate washer, 3 times 200 μl/well. Postcoat wells with 1% BSA/TBS@100 μl/well, 30-45 min, then wash before adding plasma. Add 50 μl plasma diluted to 1:50 in the appropriate well. For row “H” use 50 μl 1% BSA in TBS (Dilution buffer) as the blank. Leave at room temperature for 1-2 hours. Wash plate as above. Dilute the secondary antibody (biotinylated E06@1 μg/ml) and add 50 μl/well. After 1 hr at room temperature, wash plates as above. Prepare alkaline phosphatase labeled neutrAvidin (for biotin antibodies) or alkaline phosphatase labeled goat anti-rabbit IgG diluted in buffer containing activators (at 1:20 dilution. The activators keep the alkaline phosphatase antibodies consistent for months.) Add 50 μl to each well. Incubate at room temperature for 1 hour. Wash plate with cell washer set at 4 washes. Add 25 μl of detector for alkaline phosphatase, such as Lumi-phos 530 (keep sterile) diluted 1:1 in dist. water. Then leave at room temp. for 1.5-2 hr. Keep in the dark. Read in Chemiluminescence detector as relative light units (RLU). […]

Compound	OxPL/apoA change during treatment [1]	OxPL/apoA change following treatment [2]
CCC(CC)CC1(C(=O)Nc2ccccc2SC(=O)C(C)C)CCCCC1 [JTT-705]	increased during the active treatment	
O=C(O)c1cccnc1 [niacin]		increased significantly
